The text below walks through data of patent US9187471B2, “Pyrido [4,3-b] indole and pyrido [3,4-b] indole derivatives and methods of use” (Medivation Technologies, Inc., priority 2010, dated 2015).

One assay has as its target T1, Adrenergic α1B (Rattus norvegicus, UniProt P15823).
T1 construct: rat adrenergic α1D receptor obtained from Wistar Rat liver; from tissue; host or cells: Wistar rat liver
T1 sequence (P15823 1-515): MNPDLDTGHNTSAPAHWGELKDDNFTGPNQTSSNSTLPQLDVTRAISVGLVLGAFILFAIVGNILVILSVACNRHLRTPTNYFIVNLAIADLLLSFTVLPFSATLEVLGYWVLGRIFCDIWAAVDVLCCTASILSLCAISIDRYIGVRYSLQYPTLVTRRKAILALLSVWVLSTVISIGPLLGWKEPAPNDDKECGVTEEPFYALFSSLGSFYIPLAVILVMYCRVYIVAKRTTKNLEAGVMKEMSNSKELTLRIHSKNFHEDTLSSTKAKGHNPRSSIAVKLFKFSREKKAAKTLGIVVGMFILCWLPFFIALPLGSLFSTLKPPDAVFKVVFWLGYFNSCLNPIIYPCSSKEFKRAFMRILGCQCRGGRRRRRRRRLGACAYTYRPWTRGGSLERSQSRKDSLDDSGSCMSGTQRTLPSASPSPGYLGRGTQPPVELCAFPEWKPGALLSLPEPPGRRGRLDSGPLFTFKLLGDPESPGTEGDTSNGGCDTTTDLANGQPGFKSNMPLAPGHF
The experiment in a line: Adrenergic α1B radioligand binding ([3H]Prazosin). Conditions: read-out: Adrenergic (0.1 μM) a1B, percent inhibition of specific binding; compound at 0.1 μM; 0.25 nM [3H]Prazosin; Wistar Rat liver.

Assay [1] concerns the target T2, human recombinant adrenergic α1D receptor (Homo sapiens, UniProt P25100).
T2 construct: expressed in transfected cells; host or cells: HEK-293
T2 sequence (P25100 1-572): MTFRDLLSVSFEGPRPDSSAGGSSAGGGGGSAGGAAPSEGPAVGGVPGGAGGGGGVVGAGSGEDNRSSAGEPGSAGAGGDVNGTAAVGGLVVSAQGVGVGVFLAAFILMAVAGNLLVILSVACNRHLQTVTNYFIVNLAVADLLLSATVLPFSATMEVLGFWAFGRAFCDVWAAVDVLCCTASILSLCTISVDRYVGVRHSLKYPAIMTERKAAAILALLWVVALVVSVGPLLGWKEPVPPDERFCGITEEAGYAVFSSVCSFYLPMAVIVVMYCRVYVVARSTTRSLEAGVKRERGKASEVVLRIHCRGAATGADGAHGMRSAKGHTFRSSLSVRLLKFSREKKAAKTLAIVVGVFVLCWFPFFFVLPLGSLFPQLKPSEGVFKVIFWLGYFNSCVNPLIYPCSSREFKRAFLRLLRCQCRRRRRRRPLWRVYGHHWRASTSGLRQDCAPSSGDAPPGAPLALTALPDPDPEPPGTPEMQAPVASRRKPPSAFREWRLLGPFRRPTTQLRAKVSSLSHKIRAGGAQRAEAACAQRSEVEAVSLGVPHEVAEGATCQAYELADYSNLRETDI
The experiment in a line: Adrenergic α1D radioligand binding ([3H]Prazosin). Conditions: read-out: Adrenergic (0.1 μM) a1D, percent inhibition of specific binding; compound at 0.1 μM; 0.6 nM [3H]Prazosin.
Description: Compounds of invention were incubated with 0.6 nM [^3H]Prazosin for 60 min at 25° C. Non-specific binding was estimated in the presence of 10 μM phentolamine. Receptor proteins were filtered and washed, the filters were then counted to determine [^3H]Prazosin specifically bound. […] Compounds of the invention were tested in this biochemical assay and percent inhibition of specific binding was determined.

Molecules are shown by their SMILES.

Description for Adrenergic α1B: To evaluate in radioligand binding assays the activity of compounds of the invention, rat adrenergic α1D receptor obtained from Wistar Rat liver (Garcia-S'ainz, J. et al, Biochem. Biophys. Res. Commun. 186:760, 1992; Michel, A. et al, Br. J. Pharmacol. 98:883, 1989) in a modified Tris-HCl buffer (50 mM Tris-HCl buffer, pH 7.4, 0.5 mM EDTA) was used. Compounds of the invention were incubated with 0.25 nM [^3H]Prazosin for 60 min at 25° C. Non-specific binding was estimated in the presence of 10 μM phentolamine Receptor proteins were filtered and washed, the filters were then counted to determine [^3H]Prazosin specifically bound. […] Compounds of the invention were tested in this biochemical assay and percent inhibition of specific binding was determined.

For the compound `CNC(=O)c1cccc(-c2ccc(-n3c4c(c5cc(C)ccc53)CN(C)CC4)nc2)c1` [Compound No. 143, 3-(6-(2,8-dimethyl-3,4-dihydro-1H-pyrido[4,3-b]indol-5(2H)-yl)pyridin-3-yl)-N-methylbenzamide], the inhibition at 0.1 µM worked out at 83% on Adrenergic α1B and 72% in assay [1].

With `Cc1ccc2c(c1)c1c(n2-c2cscc2-c2ccc3c(ccn3C)c2)CCN(C)C1` [Compound 33], the inhibition at 0.1 µM at Adrenergic α1B was determined as 52%.

In general, inhibition refers to the drop in the measured response relative to a control, in per cent.
